Experimental data reported in patent publication US8735414B2 (priority 2009, dated 2014).

How the values were obtained:
[1] = tested on: bicistronic HCV replicon (replicon RNA, GenBank Accession No. AJ242654); experiment: HCV Replicon Assay; type: cell-based; conditions: Hepatitis C virus, 72 h, read-out: Replicon IC50

Structure (SMILES): C[C@H](NS(=O)(=O)c1ccc(-c2c(C(N)=O)c3cc(F)c(OC(F)F)cc3n2C2CCCC2)nc1)C(F)(F)F [compound 806, 1-cyclopentyl-6-(difluoromethoxy)-5-fluoro-2-(5-{[(2S)-1,1,1-trifluoropropan-2-yl]sulfamoyl}pyridin-2-yl)-1H-indole-3-carboxamide]
- melting point: 220 to 222 °C
- IC50 [1]: < 500 nM

Structure (SMILES): CC(C)Oc1ccc2c(C#N)c(-c3ccc(NS(=O)(=O)C4CC4)cn3)n(CC3CC3)c2c1 [compound 280, N-{6-[3-cyano-1-(cyclopropylmethyl)-6-(propan-2-yloxy)-1H-indol-2-yl]pyridin-3-yl}cyclopropanesulfonamide]
- melting point: 150 to 155 °C
- IC50 [1]: 500 to 2000 nM

Structure (SMILES): C[C@H](NS(=O)(=O)c1ccc(-c2c(C#N)c3cc(F)c(Cl)cc3n2C2CCC2)nc1)C(F)(F)F [compound 360, 6-(6-chloro-3-cyano-1-cyclobutyl-5-fluoro-1H-indol-2-yl)-N-[(2S)-1,1,1-trifluoropropan-2-yl]pyridine-3-sulfonamide]
- melting point: 203 to 206 °C
- IC50 [1]: < 500 nM

Structure (SMILES): C[C@H](NS(=O)(=O)c1cnc(-c2c(C#N)c3cc(F)ccc3n2-c2ccccn2)nc1)C(F)(F)F [compound 474, 2-[3-cyano-5-fluoro-1-(pyridin-2-yl)-1H-indol-2-yl]-N-[(2S)-1,1,1-trifluoropropan-2-yl]pyrimidine-5-sulfonamide]
- melting point: 209 to 210 °C
- IC50 [1]: < 500 nM

Structure (SMILES): Cc1ccc(-n2c(-c3ccc(S(=O)(=O)N[C@@H](C)C(F)(F)F)cn3)c(C#N)c3cc(F)c(C)cc32)nc1 [compound 885, 6-[3-cyano-5-fluoro-6-methyl-1-(5-methylpyridin-2-yl)-1H-indol-2-yl]-N-[(2S)-1,1,1-trifluoropropan-2-yl]pyridine-3-sulfonamide]
- melting point: 250 to 254 °C
- IC50 [1]: < 500 nM

Structure (SMILES): CC(C)n1c(-c2ccc(S(=O)(=O)NC(CF)CF)cn2)c(C#N)c2ccc(F)cc21 [compound 61, 6-[3-cyano-6-fluoro-1-(propan-2-yl)-1H-indol-2-yl]-N-(1,3-difluoropropan-2-yl)pyridine-3-sulfonamide]
- melting point: 155 to 156 °C
- IC50 [1]: < 500 nM

Structure (SMILES): N#Cc1c(-c2ccc(S(N)(=O)=O)cn2)n(CC2CC2)c2cc(OC(F)F)c(F)cc12 [compound 812, 6-[3-cyano-1-(cyclopropylmethyl)-6-(difluoromethoxy)-5-fluoro-1H-indol-2-yl]pyridine-3-sulfonamide]
- melting point: 173 to 178 °C
- IC50 [1]: 2000 to 5000 nM

Structure (SMILES): CCCn1c(-c2ccc(S(=O)(=O)N[C@@H](C)C(F)(F)F)cn2)c(C#N)c2cc(F)c(OC(F)F)cc21 [compound 786, 6-[3-cyano-6-(difluoromethoxy)-5-fluoro-1-propyl-1H-indol-2-yl]-N-[(2S)-1,1,1-trifluoropropan-2-yl]pyridine-3-sulfonamide]
- melting point: 162 to 168 °C
- IC50 [1]: < 500 nM

Structure (SMILES): Cc1cc2c(cc1F)c(C#N)c(-c1ccc(S(=O)(=O)N[C@@H](C)C(F)(F)F)cn1)n2-c1cc(F)cc(F)n1 [compound 1001, 6-[3-cyano-1-(4,6-difluoropyridin-2-yl)-5-fluoro-6-methyl-1H-indol-2-yl]-N-[(2S)-1,1,1-trifluoropropan-2-yl]pyridine-3-sulfonamide]
- melting point: 190.2 to 196.8 °C
- IC50 [1]: < 500 nM

Structure (SMILES): Cc1c(OC(F)F)c(F)cc2c(C#N)c(-c3ccc(S(=O)(=O)N[C@@H](C)C(F)(F)F)cn3)n(C3CCC3)c12 [compound 811, 6-[3-cyano-1-cyclobutyl-6-(difluoromethoxy)-5-fluoro-7-methyl-1H-indol-2-yl]-N-[(2S)-1,1,1-trifluoropropan-2-yl]pyridine-3-sulfonamide]
- melting point: 168 to 174 °C
- IC50 [1]: < 500 nM

Structure (SMILES): Cc1ccc2c(c1)c(C#N)c(-c1ccc(S(=O)(=O)N[C@H](C)C(F)(F)F)cn1)n2CC1CC1 [compound 458, 6-[3-cyano-1-(cyclopropylmethyl)-5-methyl-1H-indol-2-yl]-N-[(2R)-1,1,1-trifluoropropan-2-yl]pyridine-3-sulfonamide]
- melting point: 166 to 172 °C
- IC50 [1]: < 500 nM
